# Legend:
# [1] = Inhibitory concentration required to inhibit PDGFR kinase was determined
# [2] = biological target: Tyrosine-protein kinase ABL1 (Homo sapiens, UniProt P00519); assay: Inhibitory concentration required to inhibit Abl tyrosine kinase
# [3] = biological target: T1, Breakpoint cluster region protein (Homo sapiens, UniProt P11274); assay: Inhibitory concentration required to inhibit Bcr-Abl tyrosine kinase
# T1 sequence (P11274 whole entry): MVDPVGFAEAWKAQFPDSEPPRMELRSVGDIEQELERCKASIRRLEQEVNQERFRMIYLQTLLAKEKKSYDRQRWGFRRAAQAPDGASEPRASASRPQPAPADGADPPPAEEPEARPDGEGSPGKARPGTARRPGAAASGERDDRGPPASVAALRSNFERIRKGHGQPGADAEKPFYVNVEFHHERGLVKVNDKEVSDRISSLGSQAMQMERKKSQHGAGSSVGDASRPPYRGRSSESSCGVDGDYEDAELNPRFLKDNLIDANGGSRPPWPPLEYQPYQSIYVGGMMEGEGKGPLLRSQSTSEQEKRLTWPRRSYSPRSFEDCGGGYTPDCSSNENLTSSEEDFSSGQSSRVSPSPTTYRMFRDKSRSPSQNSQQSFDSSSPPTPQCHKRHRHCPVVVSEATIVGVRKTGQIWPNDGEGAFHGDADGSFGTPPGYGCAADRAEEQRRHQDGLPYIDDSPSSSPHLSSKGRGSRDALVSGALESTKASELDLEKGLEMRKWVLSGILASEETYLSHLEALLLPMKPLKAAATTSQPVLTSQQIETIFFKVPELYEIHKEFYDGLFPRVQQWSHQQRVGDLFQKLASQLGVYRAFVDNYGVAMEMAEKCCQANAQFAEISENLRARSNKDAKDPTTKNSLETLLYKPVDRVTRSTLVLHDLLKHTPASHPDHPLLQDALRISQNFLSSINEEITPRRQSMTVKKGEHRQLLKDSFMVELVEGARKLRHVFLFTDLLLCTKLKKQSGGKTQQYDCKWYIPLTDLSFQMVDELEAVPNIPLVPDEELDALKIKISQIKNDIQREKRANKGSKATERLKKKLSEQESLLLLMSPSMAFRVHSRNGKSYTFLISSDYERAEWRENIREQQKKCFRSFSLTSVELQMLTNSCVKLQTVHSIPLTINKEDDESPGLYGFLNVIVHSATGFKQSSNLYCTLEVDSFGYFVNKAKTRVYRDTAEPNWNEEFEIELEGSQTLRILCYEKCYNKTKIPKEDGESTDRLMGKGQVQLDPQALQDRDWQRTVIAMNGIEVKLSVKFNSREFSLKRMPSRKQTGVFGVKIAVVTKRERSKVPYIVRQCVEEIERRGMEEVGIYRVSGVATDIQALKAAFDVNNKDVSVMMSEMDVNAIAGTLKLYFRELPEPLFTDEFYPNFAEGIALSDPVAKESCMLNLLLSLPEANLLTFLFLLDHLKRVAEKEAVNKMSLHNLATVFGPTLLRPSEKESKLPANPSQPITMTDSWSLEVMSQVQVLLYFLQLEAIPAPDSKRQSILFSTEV
# [4] = Maximum plasma concentration was determined in mice after 20 mg/kg oral administration of the compound; assay type: ADME, organism-based; parameters: dose 20 mg/kg, route oral; settings: mouse
# [5] = Plasma concentration after 120 minutes gavage was determined in mice after 20 mg/kg oral administration of the compound; assay type: ADME, organism-based; parameters: dose 20 mg/kg, route oral; settings: mouse, read-out: C120
# [6] = Maximum plasma concentration time in minutes was determined in mice after 20 mg/kg oral administration of the compound; assay type: ADME, organism-based; parameters: dose 20 mg/kg, route oral; settings: mouse
# Sequence of Tyrosine-protein kinase ABL1 (P00519 whole entry): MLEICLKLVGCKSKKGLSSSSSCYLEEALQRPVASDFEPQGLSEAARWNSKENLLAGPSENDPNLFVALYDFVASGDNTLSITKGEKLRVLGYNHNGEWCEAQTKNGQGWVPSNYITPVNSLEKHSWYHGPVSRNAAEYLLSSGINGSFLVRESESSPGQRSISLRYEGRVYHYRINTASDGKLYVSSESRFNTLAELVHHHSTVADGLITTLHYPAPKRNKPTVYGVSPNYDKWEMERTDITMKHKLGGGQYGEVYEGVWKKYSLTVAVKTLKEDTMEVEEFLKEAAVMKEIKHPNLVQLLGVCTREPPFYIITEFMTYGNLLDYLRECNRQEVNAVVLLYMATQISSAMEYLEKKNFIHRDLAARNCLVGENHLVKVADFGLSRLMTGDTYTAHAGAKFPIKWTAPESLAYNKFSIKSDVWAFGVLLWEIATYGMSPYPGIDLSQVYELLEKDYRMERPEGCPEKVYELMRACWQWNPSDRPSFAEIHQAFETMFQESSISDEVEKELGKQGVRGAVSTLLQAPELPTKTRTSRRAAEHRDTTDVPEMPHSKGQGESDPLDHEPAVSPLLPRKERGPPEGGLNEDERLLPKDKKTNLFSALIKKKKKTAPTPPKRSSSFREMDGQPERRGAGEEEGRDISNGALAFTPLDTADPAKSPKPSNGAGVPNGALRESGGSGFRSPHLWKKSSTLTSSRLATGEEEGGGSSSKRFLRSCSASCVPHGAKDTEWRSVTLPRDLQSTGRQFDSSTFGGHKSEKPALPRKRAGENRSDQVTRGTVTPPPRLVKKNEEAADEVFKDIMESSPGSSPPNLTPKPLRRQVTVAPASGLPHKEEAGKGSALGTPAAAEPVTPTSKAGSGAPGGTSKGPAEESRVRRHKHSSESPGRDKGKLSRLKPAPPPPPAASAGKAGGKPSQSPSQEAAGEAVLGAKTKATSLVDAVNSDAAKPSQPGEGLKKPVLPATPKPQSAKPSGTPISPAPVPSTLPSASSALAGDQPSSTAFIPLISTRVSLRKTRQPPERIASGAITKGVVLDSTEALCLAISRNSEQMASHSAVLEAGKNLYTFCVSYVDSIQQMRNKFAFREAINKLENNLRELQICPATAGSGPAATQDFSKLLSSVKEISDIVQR
SMILES,IC50 [1],IC50 [2],further results
Cc1ccc(NC(=O)NCCCN2CCOCC2)cc1Nc1nccc(-c2cccnc2)n1,0.414 µM,–,–
Cc1ccc(NC(=O)Nc2cccc(N(C)C)c2)cc1Nc1nccc(-c2cccnc2)n1,0.026 µM,0.056 µM,IC50 [3]: 0.573 µM; Cmax [4]: 1370 nM; concentration at 2 h [5]: 300 nM; Tmax [6]: 30 min
Cc1ccc(NC(=O)Nc2cccnc2)cc1Nc1nccc(-c2cccnc2)n1,0.096 µM,1 µM,–
Cc1ccc(NC(=O)NCCN2CCCC2)cc1Nc1nccc(-c2cccnc2)n1,0.655 µM,–,IC50 ([3]; read-out: IC50): > 9 µM
Cc1ccc(NC(=O)NCCCO)cc1Nc1nccc(-c2cccnc2)n1,> 3 µM,–,–
CCN(CC)c1ccc(NC(=O)Nc2ccc(C)c(Nc3nccc(-c4cccnc4)n3)c2)cc1,2.02 µM,> 3.4 µM,IC50 ([3]; read-out: IC50): > 10 µM
Cc1ccc(NC(=O)Nc2cccc(N3CCCC3)c2)cc1Nc1nccc(-c2cccnc2)n1,> 2.5 µM,–,–
Cc1ccc(NC(=O)N2CCN(C)CC2)cc1Nc1nccc(-c2cccnc2)n1,0.132 µM,–,IC50 ([3]; read-out: IC50): > 5 µM
Cc1ccc(NC(=O)Nc2cccc(CN3CCN(C)CC3)c2)cc1Nc1nccc(-c2cccnc2)n1,0.192 µM,–,–
Cc1ccc(NC(=O)NCc2ccc(N(C)C)cc2)cc1Nc1nccc(-c2cccnc2)n1,0.236 µM,–,–
Cc1ccc(NC(=O)N2CCC(N3CCCC3)CC2)cc1Nc1nccc(-c2cccnc2)n1,0.176 µM,–,–
Cc1ccc(NC(=O)Nc2ccccc2CN(C)C2CCCCC2)cc1Nc1nccc(-c2cccnc2)n1,0.1 µM,0.87 µM,–
Cc1ccc(NC(=O)Nc2ccc(N(C)C)cc2)cc1Nc1nccc(-c2cccnc2)n1,1.73 µM,> 5 µM,IC50 ([3]; read-out: IC50): > 10 µM
Cc1ccc(NC(=O)NCCCn2ccnc2)cc1Nc1nccc(-c2cccnc2)n1,> 1.3 µM,–,–
Cc1ccc(NC(=O)N(C)CCCO)cc1Nc1nccc(-c2cccnc2)n1,> 3 µM,–,–
Cc1ccc(NC(=O)Nc2cccc(Cl)c2)cc1Nc1nccc(-c2cccnc2)n1,0.017 µM,0.175 µM,IC50 ([3]; read-out: IC50): 1 µM
Cc1ccc(NC(=O)N2CCCCC2)cc1Nc1nccc(-c2cccnc2)n1,0.063 µM,–,Cmax [4]: 4320 nM; concentration at 2 h [5]: 510 nM; Tmax [6]: 30 min
Cc1ccc(NC(=O)Nc2cccc3ncccc23)cc1Nc1nccc(-c2cccnc2)n1,0.064 µM,–,Cmax [4]: 170 nM; concentration at 2 h [5]: 50 nM; Tmax [6]: 30 min
CCN(CC)c1cccc(NC(=O)Nc2ccc(C)c(Nc3nccc(-c4cccnc4)n3)c2)c1,0.047 µM,0.28 µM,IC50 ([3]; read-out: IC50): > 1 µM
Cc1ccc(NC(=O)Nc2cccc3[nH]ncc23)cc1Nc1nccc(-c2cccnc2)n1,0.375 µM,–,–
Cc1ccc(NC(=O)NCCCN(C)C)cc1Nc1nccc(-c2cccnc2)n1,> 1.6 µM,–,–
Cc1ccc(NC(=O)N2CCN(Cc3ccncc3)CC2)cc1Nc1nccc(-c2cccnc2)n1,0.256 µM,–,–
